Results taken from US20260274836A1, “NOVEL HEPATOSELECTIVE POLYADENYLATING POLYMERASES INHIBITORS AND THEIR METHOD OF USE” (Baruch S. Blumberg Institute, priority 2022, published 2026).
“And” between values parts separate entries of the source, which are not always exact repeats. Equal values may be shown once.

Experiments:
[1] = molecular target: T1, OATP1B1 (Homo sapiens, UniProt Q9Y6L6); assay: OATP1B1 transporter substrate uptake in OATP1B1-HEK293 cells; type: in vitro ADME
T1 construct: expressed in transfected cells; host or cells: HEK293
T1 sequence (Q9Y6L6 1-691): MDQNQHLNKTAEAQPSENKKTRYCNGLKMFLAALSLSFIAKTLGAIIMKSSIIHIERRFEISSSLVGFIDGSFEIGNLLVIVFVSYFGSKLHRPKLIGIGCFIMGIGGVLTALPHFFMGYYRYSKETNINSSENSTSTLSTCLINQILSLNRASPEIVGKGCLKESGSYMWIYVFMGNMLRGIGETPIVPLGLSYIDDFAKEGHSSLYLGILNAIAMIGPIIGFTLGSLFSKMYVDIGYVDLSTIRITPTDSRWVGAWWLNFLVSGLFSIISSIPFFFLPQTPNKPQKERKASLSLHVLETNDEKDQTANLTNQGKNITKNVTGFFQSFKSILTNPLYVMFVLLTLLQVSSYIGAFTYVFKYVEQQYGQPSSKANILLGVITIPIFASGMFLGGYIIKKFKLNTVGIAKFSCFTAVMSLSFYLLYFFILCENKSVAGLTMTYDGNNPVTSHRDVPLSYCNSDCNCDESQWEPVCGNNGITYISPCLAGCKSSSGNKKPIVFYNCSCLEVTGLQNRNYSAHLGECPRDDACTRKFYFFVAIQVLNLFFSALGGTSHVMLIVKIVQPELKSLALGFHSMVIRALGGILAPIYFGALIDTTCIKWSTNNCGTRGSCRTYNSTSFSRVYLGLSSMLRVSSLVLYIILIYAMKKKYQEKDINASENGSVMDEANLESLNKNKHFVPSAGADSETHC
Protocol: (§1) Protocol for identification of compounds that are substrates of transporters OATPIBI and OATPIB3. Transfected HEK293 and vector control HEK293 cells were cultured in 24-well poly-D-lysine or collagen-coated tissue culture plates ([…]) for 2 and 10 minutes respectively in transport buffer (HBSSg, pH 7.4, pre-warmed to 37° C.). At a defined time point, the uptake experiments were stopped by removing dosing solution followed by two washes of ice-cold HBSSg buffer. The cells were lysed for 2 minutes with 75% ACN containing an appropriate internal standard (when available). Lysis buffer were chilled to −20° C., and the plate was kept on ice during lysis. The cell lysate was transferred into a 96-well plate for sample analysis with LC-MS/MS analysis to determine concentration of test compound in cell lysate. The uptake of test compounds was normalized by total cell protein using the BCA Protein Assay Kit following the manufacturer's protocol. The inhibitor Rifamycin SV was used to block OATP1B1 and OATP1B3 transporter activity in order to determine uptake ratios.

[2] = Pharmacokinetics after oral gavage (PO) administration, plasma; type: in vivo, CD1 mice; parameters: AUClast/D: unit not given here; conditions: 8 mg/kg oral; for Concentration (ng/mL), plasma: individual animals
Protocol: (§2) Protocol for pharmacokinetic and tissue distribution studies. The pharmacokinetics of the compounds was studied in CD1 mice after intravenous (IV) and oral gavage (PO) administration. Mouse PK studies was conducted at 3 mg/kg (IV) and 8 mg/kg (PO). Plasma samples obtained from dosed animals, at ten time points, including 5, 15 and 30 minutes and 1, 1.5, 2, 4, 6, 8 and 24 hr post-dose for processing to plasma, were prepared for analysis by means of a single step protein precipitation technique, by adding 200 μL of acetonitrile containing an IS mixture (labetalol, imipramine and diclofenac) to 50 μL aliquots of individual subject samples. Samples were mixed by vortex for homogeneity and then subjected to centrifugation at 4000 rpm for 10 min. The supernatant (200 μL) was collected and injected into the LC-MS/MS for analysis. Pharmacokinetic parameters will be calculated using established non-compartmental methods. The liver distribution of the compounds was studied in the PO group and liver tissues were collected at each time point after PO administration. Accurately weighed whole liver tissues were collected in a 50 mL tube, and 3 volumes per weight of water will be added. Tissue samples were homogenized and 50 μL of the homogenates will be processed along with plasma samples as described above.

[3] = molecular target: T2, OATP1B3 (Homo sapiens, UniProt Q9NPD5); assay: OATP1B3 transporter substrate uptake in OATP1B3-HEK293 cells; type: in vitro ADME
T2 construct: expressed in transfected cells; host or cells: HEK293
T2 sequence (Q9NPD5 1-702): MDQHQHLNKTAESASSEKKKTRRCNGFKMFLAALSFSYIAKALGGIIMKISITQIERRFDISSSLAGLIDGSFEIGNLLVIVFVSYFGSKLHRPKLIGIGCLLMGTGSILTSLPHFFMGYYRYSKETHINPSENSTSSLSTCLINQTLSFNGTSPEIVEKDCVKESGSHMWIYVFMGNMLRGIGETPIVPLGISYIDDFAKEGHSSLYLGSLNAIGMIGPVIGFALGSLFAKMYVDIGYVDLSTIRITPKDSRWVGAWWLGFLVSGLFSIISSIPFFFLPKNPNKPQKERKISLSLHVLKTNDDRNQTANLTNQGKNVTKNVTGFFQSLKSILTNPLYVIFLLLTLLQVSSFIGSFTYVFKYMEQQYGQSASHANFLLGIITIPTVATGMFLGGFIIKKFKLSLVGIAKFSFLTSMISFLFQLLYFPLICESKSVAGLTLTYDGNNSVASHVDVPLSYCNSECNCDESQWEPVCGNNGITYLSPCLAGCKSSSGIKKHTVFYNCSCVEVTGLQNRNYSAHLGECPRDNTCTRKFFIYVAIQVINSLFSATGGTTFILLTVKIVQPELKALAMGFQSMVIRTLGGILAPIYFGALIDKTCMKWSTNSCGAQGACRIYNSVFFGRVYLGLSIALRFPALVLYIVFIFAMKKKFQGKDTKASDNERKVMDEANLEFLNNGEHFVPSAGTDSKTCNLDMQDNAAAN
Protocol: as §1

[4] = Pharmacokinetics after intravenous (IV) administration, plasma; type: in vivo, CD1 mice; parameters: AUClast/D: unit not given here; conditions: 3 mg/kg IV; for Concentration (ng/mL): plasma
Protocol: as §2

COc1cc2c(cc1OCCCCCCC(=O)O)C[C@@H](C(C)C)n1cc(C(=O)O)c(=O)cc1-2 [Example 6, (S)-9-((6-carboxyhexyl)oxy)-6-isopropyl-10-methoxy-2-oxo-6,7-dihydro-2H-pyrido[2,1-a]isoquinoline-3-carboxylic acid]
Uptake Ratio (−/+Inhibitor) ([1]; OATP1B1-HEK293 cells, test concentration 1 μM, inhibitor Rifamycin SV): 11.17 | Uptake Ratio (Transporter(−Inhibitor)/Mock(−Inhibitor)) ([1]; OATP1B1-HEK293 vs mock HEK293, test concentration 1 μM): 18.99 | AUClast/D ([2]; mean): 4.33 | F ([2]; mean): 5.09% | Concentration (ng/mL), plasma ([2]; 8 h): BLOQ | Concentration (ng/mL), plasma ([2]; 24 h): BLOQ | Uptake Ratio (−/+Inhibitor) ([3]; OATP1B3-HEK293 cells, test concentration 1 μM, inhibitor Rifamycin SV): 11.57 | Uptake Ratio (Transporter(−Inhibitor)/Mock(−Inhibitor)) ([3]; OATP1B3-HEK293 vs mock HEK293, test concentration 1 μM): 24.80 | AUC—% Extrap —obs ([4]; individual mice): 1.59% and 1.03% and 0.662% | Cl_obs ([4]; individual mice): 187 mL/min/kg and 166 mL/min/kg and 242 mL/min/kg | AUClast/D ([4]; mean): 85.1 | AUC—% Extrap —obs ([4]; mean): 1.09% | C0 ([4]; mean): 2568 ng/mL | Cl_obs ([4]; mean): 198 mL/min/kg | Concentration (ng/mL) ([4]; 4 h, individual mice): BLOQ | Concentration (ng/mL) ([4]; 8 h, individual mice): BLOQ | Concentration (ng/mL) ([4]; 24 h, individual mice): BLOQ
